Measured values published in patent publication US4599352A, “Antineoplastic platinum (IV) complexes and compositions” (priority 1984, dated 1986).

Experiments:
IP L1210/Cisplatin = assay: Activity against IP-implanted L1210/Cisplatin leukemia resistant to cisplatin, 30 day test (Table 3); assay type: in vivo, Female CD2Fl mice
Protocol: (§1) Biological properties of the compounds of the present invention were determined following the protocol described in Cancer Chemotherapy Reports, Vol. 3, No. 3, 1972 which report is incorporated herein by reference.
(§2) Other known mechanisms of resistance for other classes of agents, such as gene amplification or target enzyme change or amplication, also need to be explored. The experiments summarized in Table 3 were conducted at the same time against both sublines using the same drug preparations. […] These experiments were repeated in a second laboratory as documented in Table 4. However, in these experiments the animals were held for 60 rather than 30 days to evaluate whether or not long-term survivors are produced after drug treatment in a more challenging setting.
This experiment (A8-00005 3LE31) was conducted at the Southern Research Institute, Birmingham, Ala. under the supervision of Dr. Daniel Griswold. The protocols were the same as those published previously (Geran et al., Cancer Chemotherapy Reports 3: No. 2, 1972 [Attachment 11]). 10^5 cells were implanted intraperitoneally in CD2Fl male mice on Day 0. Drug treatments were given intraperitoneally as single injections at the doses indicated on Days 1, 5 and 9 after tumor implantation. The diluent was saline except for NSC-271674 where 5% sodium bicarbonate was used. All drugs were prepared fresh on the day of injection, and all were administered in solution. Median survival times for both control and drug-treated mice were determined and expressed as a percentage (% T/C). Body weights were determined on Day 5 and expressed as a weight difference (body weight of the drug-treated animals minus that of the control animals in grams) (T-C). The diluent control animals lived a median of 8.4 days and gained 1.9 grams by Day 5 in this experiment. All animals, including Day 30 survivors, were used in the calculation of median survival times. The log10 change in tumor burden refers to the net log change in viable tumor cell population at the end of therapy (Rx) as compared to the start of therapy; e.g., a […] means that there was a […] and a 3 log change means there was a 1000-fold increase in tumor burden at the end of therapy. The tumor burden at the start of therapy was about 6.1×10^5 cells in this experiment. […]

IP L1210 leukemia = assay: Mouse optimal (highest tolerated) dose, IP L1210 leukemia, Days 1, 5 and 9 schedule (Table 7); assay type: in vivo
Source text: *IP L1210 leukemia, Days 1, 5 and 9 schedule. Highest tolerated dose in a
least 2 of 3 experiments (i.e,. animal weight difference (testcontrol)

[1] = test system: IP-Implanted L1210 Leukemia; assay: Dose-response against IP-implanted L1210 leukemia, IP treatment Days 1, 5 and 9, 30-day test (Table 2); assay type: in vivo, CD2Fl male mice
Protocol: as §1
(§3) This experiment (A8-00005 3LE31) was conducted at the Southern Research Institute, Birmingham, Ala. under the supervision of Dr. Daniel Griswold. The protocols were the same as those published previously (Geran et al., Cancer Chemotherapy Reports 3: No. 2, 1972 [Attachment 11]). 10^5 cells were implanted intraperitoneally in CD2Fl male mice on Day 0. Drug treatments were given intraperitoneally as single injections at the doses indicated on Days 1, 5 and 9 after tumor implantation. The diluent was saline except for NSC-271674 where 5% sodium bicarbonate was used. All drugs were prepared fresh on the day of injection, and all were administered in solution. Median survival times for both control and drug-treated mice were determined and expressed as a percentage (% T/C). Body weights were determined on Day 5 and expressed as a weight difference (body weight of the drug-treated animals minus that of the control animals in grams) (T-C). The diluent control animals lived a median of 8.4 days and gained 1.9 grams by Day 5 in this experiment. All animals, including Day 30 survivors, were used in the calculation of median survival times. The log10 change in tumor burden refers to the net log change in viable tumor cell population at the end of therapy (Rx) as compared to the start of therapy; e.g., a […] means that there was a […] and a 3 log change means there was a 1000-fold increase in tumor burden at the end of therapy. The tumor burden at the start of therapy was about 6.1×10^5 cells in this experiment.

IP L1210 = assay: Activity against IP-implanted L1210 leukemia sensitive to cisplatin, 30 day test (Table 3); assay type: in vivo, Female CD2Fl mice
Protocol: as §1, §2, §3
These experiments (A8-00008 3LE31 and A8-00001 3DP31) were conducted concurrently at the Southern Research Institute, Birmingham, Ala. under the supervision of Dr. Daniel Griswold. See Table 4 for experimental details. The diluent control animals bearing L1210 leukemia lived a median of 8.6 days and gained 1.3 grams by Day 5. […] Female CD2Fl mice were used for these experiments.

Structure (SMILES): [Cl][Pt-2]1([Cl])([Cl])([Cl])[NH2+][C@@H]2CCCC[C@H]2[NH2+]1 [trans (l), (1R,2R)-Tetrachloro-trans-1,2-cyclohexanediammine platinum (IV)]
- 30 Day Survivors/Total (IP L1210/Cisplatin; 1 mg/kg/dose): 0/6
- Approx. Log10 Change in Tumor Burden at End of RX (IP L1210/Cisplatin; 1 mg/kg/dose): ~2.8 log10
- Median % T/C (IP L1210/Cisplatin; 1 mg/kg/dose): 118%
- 30 Day Survivors/Total (IP L1210/Cisplatin; 2 mg/kg/dose): 0/6
- Approx. Log10 Change in Tumor Burden at End of RX (IP L1210/Cisplatin; 2 mg/kg/dose): ~2.5 log10
- Median % T/C (IP L1210/Cisplatin; 2 mg/kg/dose): 137%
- 30 Day Survivors/Total (IP L1210/Cisplatin; 4 mg/kg/dose): 5/6
- Approx. Log10 Change in Tumor Burden at End of RX (IP L1210/Cisplatin; 4 mg/kg/dose): ~-5.9 log10
- Median % T/C (IP L1210/Cisplatin; 4 mg/kg/dose): 322%
- 30 Day Survivors/Total (IP L1210/Cisplatin; 8 mg/kg/dose): 5/6
- Approx. Log10 Change in Tumor Burden at End of RX (IP L1210/Cisplatin; 8 mg/kg/dose): ~-5.9 log10
- Median % T/C (IP L1210/Cisplatin; 8 mg/kg/dose): 322%
- 30 Day Survivors/Total (IP L1210/Cisplatin; 16 mg/kg/dose): 0/6
- Approx. Log10 Change in Tumor Burden at End of RX (IP L1210/Cisplatin; 16 mg/kg/dose): ~3.1 log10
- Median % T/C (IP L1210/Cisplatin; 16 mg/kg/dose): 89%
- Mouse Optimal Dose (highest tolerated dose in at least 2 of 3 experiments) (IP L1210 leukemia): 8 mg/kg
- 30-Day Survivors/Total ([1]; 1 mg/kg/dose IP): 0/6
- Approx. Log10 Change in Tumor Burden at End of Rx ([1]; 1 mg/kg/dose IP): ~2.7 log10
- Body Weight Difference ([1]; 1 mg/kg/dose IP): -0.4 Grams
- Median % T/C ([1]; 1 mg/kg/dose IP): 134%
- 30-Day Survivors/Total ([1]; 2 mg/kg/dose IP): 0/6
- Approx. Log10 Change in Tumor Burden at End of Rx ([1]; 2 mg/kg/dose IP): ~1.7 log10
- Body Weight Difference ([1]; 2 mg/kg/dose IP): -0.9 Grams
- Median % T/C ([1]; 2 mg/kg/dose IP): 170%
- 30-Day Survivors/Total ([1]; 4 mg/kg/dose IP): 2/6
- Approx. Log10 Change in Tumor Burden at End of Rx ([1]; 4 mg/kg/dose IP): ~-2.8 log10
- Body Weight Difference ([1]; 4 mg/kg/dose IP): -1.2 Grams
- Median % T/C ([1]; 4 mg/kg/dose IP): 238%
- 30-Day Survivors/Total ([1]; 8 mg/kg/dose IP): 1/6
- Approx. Log10 Change in Tumor Burden at End of Rx ([1]; 8 mg/kg/dose IP): ~-5.7 log10
- Body Weight Difference ([1]; 8 mg/kg/dose IP): -2.5 Grams
- Median % T/C ([1]; 8 mg/kg/dose IP): 319%
- Body Weight Difference ([1]; 8 mg/kg/dose IP, listed as trans l): less than -4 Grams
- 30-Day Survivors/Total ([1]; 16 mg/kg/dose IP): 0/6
- Approx. Log10 Change in Tumor Burden at End of Rx ([1]; 16 mg/kg/dose IP): ~3.0 log10
- Body Weight Difference ([1]; 16 mg/kg/dose IP): -3.5 Grams
- Median % T/C ([1]; 16 mg/kg/dose IP): 119%
- Optimal dose (dose producing best therapeutic response) ([1]; day 1, 5 and 9 schedule): 8 mg/kg/injection
- 30 Day Survivors/Total (IP L1210; 1 mg/kg/dose): 0/6
- Approx. Log10 Change in Tumor Burden at End of RX (IP L1210; 1 mg/kg/dose): ~2.5 log10
- Median % T/C (IP L1210; 1 mg/kg/dose): 143%
- 30 Day Survivors/Total (IP L1210; 2 mg/kg/dose): 1/6
- Approx. Log10 Change in Tumor Burden at End of RX (IP L1210; 2 mg/kg/dose): ~-0.4 log10
- Median % T/C (IP L1210; 2 mg/kg/dose): 197%
- 30 Day Survivors/Total (IP L1210; 4 mg/kg/dose): 2/6
- Approx. Log10 Change in Tumor Burden at End of RX (IP L1210; 4 mg/kg/dose): ~-5.9 log10
- Median % T/C (IP L1210; 4 mg/kg/dose): 313%
- 30 Day Survivors/Total (IP L1210; 8 mg/kg/dose): 4/6
- Approx. Log10 Change in Tumor Burden at End of RX (IP L1210; 8 mg/kg/dose): ~-5.9 log10
- Median % T/C (IP L1210; 8 mg/kg/dose): 348%
- 30 Day Survivors/Total (IP L1210; 16 mg/kg/dose): 0/6
- Median % T/C (IP L1210; 16 mg/kg/dose): 93%
